Measured values taken from patent US20240207421A1, “NERVE TARGETING PEPTIDES AND METHODS OF USE” (ALUME BIOSCIENCES, INC., priority 2020, published 2024).

Tested on: Human Myelin PLP
Assay: Phage display library screening (Example 2, Python script analysis), binding to Human Myelin PLP
Settings: combined unique sequence count, Python/R script analysis
Experimental: (§1) Phage display library screens were used to identify peptides that bind to target proteins (including specific laminin trimers) that are expressed in human nerves, as described in Table 3. These screens were also carried out to identify peptides that could bind selectively to nerves versus muscle. Such peptides could therefore be useful for systemic in-vivo labeling of nerves during fluorescence assisted surgery. Specifically, m 13 phage libraries expressing 7 or 12 random amino acid peptides, or a cyclic peptide CX7C, on the N-terminus of the minor coat protein pIII (New England Biolabs; NEB) were processed through multiple rounds of selection for binding to target proteins expressed in nerves, or to excised human nerves, nerve extracts, or muscle, as described further below.
(§2) For screening against the specified target proteins in Table 1, including LN211, LN411, LN421, and LN521, the phage library was processed by up to 4 binding and wash cycles. For selection, phage libraries were incubated for up to 24 hours at 4° C. in 96 well plates that had been coated with one of the target proteins. Plates were then washed with PBS and phage were eluted using 0.2M glycine pH 2.0. Phage supernatants where then neutralized with Tris pH 9.0 prior to plating on TGI bacteria and LB agar plates. Colonies were counted to determine titer followed by DNA preparation of pools of phage and NextGen sequencing. After rounds of selection, phage were pooled and amplified for iterative selection. Phage that were bound at each round were sequenced. NextGen sequencing of pools after 2, 3 and 4 rounds of selection was used to isolate candidate sequences that were analyzed further to identify those that specifically bound each unique target protein.
(§3) Python Script Analysis: For all NEB sequence datasets, a python script was used to translate, trim, and filter the peptide sequences. The script translated the nucleotide sequences, translating amber codons as glutamine in peptide sequences, and then trimmed the end sequences that come from the vector. Secondly, the script combined the unique counts of trimmed peptides with identical sequences. […] Another python script was used to group peptides from different assays according to protein target (Myelin Protein Zero, Myelin Proteolipid Protein, Myelin Basic Protein, and Nidogen-2) and also combine the unique sequence counts for each peptide. An R script was written to merge the peptide sequences from different data files and determine peptides specific for each protein target but absent from different protein binding datasets. Peptide sequences were ranked by unique sequence count.

Substance	Count
AHQSSVT (Myelin PLP-binding peptide)	42
ALFQERK (Myelin PLP-binding peptide)	27
AQASSAR (Myelin PLP-binding peptide)	27
ARFVPLT (Myelin PLP-binding peptide)	30
ASLTLAL (Myelin PLP-binding peptide)	26
AVVAMNK (Myelin PLP-binding peptide)	28
DGSRDLV (Myelin PLP-binding peptide)	30
DRHEGHR (Myelin PLP-binding peptide)	26
EKSTTVA (Myelin PLP-binding peptide)	30
EPSSFTF (Myelin PLP-binding peptide)	31
EVLYPNN (Myelin PLP-binding peptide)	27
FRIDKSM (Myelin PLP-binding peptide)	26
FSLDRDG (Myelin PLP-binding peptide)	29
FSTPTNV (Myelin PLP-binding peptide)	29
GHLQSLF (Myelin PLP-binding peptide)	26
GIPSSKN (Myelin PLP-binding peptide)	28
GKSYSQI (Myelin PLP-binding peptide)	31
GLWGPSL (Myelin PLP-binding peptide)	26
GNVFQTS (Myelin PLP-binding peptide)	31
GPAAVII (Myelin PLP-binding peptide)	29
GSAWKKH (Myelin PLP-binding peptide)	44
GWSTAIR (Myelin PLP-binding peptide)	29
HKAPLGT (Myelin PLP-binding peptide)	29
HLHTRPT (Myelin PLP-binding peptide)	27
IDRVRGL (Myelin PLP-binding peptide)	29

Tested on: Laminin 421/521
Assay: Phage display library screening (Example 2), NEB laminin-binding peptides
Set-up: species or system human
Settings: Laminin 421/521, not 211 and 411; combined unique sequence count, Python/R script analysis
How it was run: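 M13 phage libraries (7- or 12-mer random or cyclic CX7C peptides on pIII) panned up to 4 rounds against plate-coated laminins LN211, LN411, LN421, LN521, 24 h at 4 °C; elution with 0.2M glycine pH 2.0. NextGen sequencing of pools after rounds 2–4; peptides binding 421/521 but not 211/411 identified.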

Substance	Count
EGHVWSEYTWGT (Human MPZ-binding peptide)	50

Tested on: Human MPZ
Assay: Phage display library screening (Example 2, Python script analysis), binding to Human MPZ
Settings: combined unique sequence count, Python/R script analysis
Experimental: as §1, §2, §3

Sequence of Human MPZ (P25189 30-153 limits assumed): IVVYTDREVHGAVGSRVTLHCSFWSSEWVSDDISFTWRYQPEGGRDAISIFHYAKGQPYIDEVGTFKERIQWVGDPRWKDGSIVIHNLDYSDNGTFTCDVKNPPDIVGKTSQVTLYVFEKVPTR

Substance	Count
CEDRQRSMC (Human MPZ-binding peptide)	40
CERIGPREC (Human MPZ-binding peptide)	39
CGEKIMSLC (Human MPZ-binding peptide)	40
CIKGEDNQC (Human MPZ-binding peptide)	38
CLKQQTGDC (Human MPZ-binding peptide)	37
CPDAARNSC (Human MPZ-binding peptide)	43
CQKWFTFAC (Human MPZ-binding peptide)	39
CRVGVTSAC (Human MPZ-binding peptide)	41
CSNALNKAC (Human MPZ-binding peptide)	39
CYSSVADMC (Human MPZ-binding peptide)	43
DRYLLNQ (Human MPZ-binding peptide)	40
EGHVWSEYTWGT (Human MPZ-binding peptide)	37
FALPAGL (Human MPZ-binding peptide)	41
FEHMAVT (Human MPZ-binding peptide)	42
FMSDVDH (Human MPZ-binding peptide)	37
FPSYTIS (Human MPZ-binding peptide)	40
FRVTQTA (Human MPZ-binding peptide)	41
FSPRDVS (Human MPZ-binding peptide)	39
FSTTGRG (Human MPZ-binding peptide)	39
GEWRARIDQDVS (Human MPZ-binding peptide)	65
GGSKVWG (Human MPZ-binding peptide)	40
GLWRHTM (Human MPZ-binding peptide)	40
GMVSPHHSVYRH (Human MPZ-binding peptide)	51
GPVVSGM (Human MPZ-binding peptide)	46
GSWSSGF (Human MPZ-binding peptide)	52
HHPLFID (Human MPZ-binding peptide)	39
HLDSRRH (Human MPZ-binding peptide)	46

Substance	Count
HNQLLYT (Human MPZ-binding peptide)	38
HPFPRFD (Human MPZ-binding peptide)	45
HPLMVPS (Human MPZ-binding peptide)	41
IEQVGWR (Human MPZ-binding peptide)	38
ISSVTVV (Human MPZ-binding peptide)	37
KLPTLSV (Human MPZ-binding peptide)	44
KQPAMEN	37
KRNLWDI (Human MPZ-binding peptide)	40
KTPILAS (Human MPZ-binding peptide)	38
LISPTAR (Human MPZ-binding peptide)	37
LPAESHW (Human MPZ-binding peptide)	45
LPNANNL (Human MPZ-binding peptide)	41
LSPPRIM (Human MPZ-binding peptide)	43
LVLQTTP (Human MPZ-binding peptide)	37
LVLSNPR (Human MPZ-binding peptide)	46
LVNPFPE (Human MPZ-binding peptide)	39
LWAKRDA (Human MPZ-binding peptide)	38
MIHTRQT (Human MPZ-binding peptide)	41
MYHDSVS (Human MPZ-binding peptide)	47
NASVPPK (Human MPZ-binding peptide)	42
NGAYSLAIRYTS (Human MPZ-binding peptide)	53
NMSHSNR (Human MPZ-binding peptide)	46
NPISPRN (Human MPZ-binding peptide)	38
NPTSEGA (Human MPZ-binding peptide)	37
NTASMTT (Human MPZ-binding peptide)	38
QIAHLEY (Human MPZ-binding peptide)	50
SAHSVVE (Human MPZ-binding peptide)	38

Substance	Count
SETESYM (Human MPZ-binding peptide)	41
SGHGAFR (Human MPZ-binding peptide)	42
SNALSYF (Human MPZ-binding peptide)	41
SPNTNSH (Human MPZ-binding peptide)	40
STHEWRT (Human MPZ-binding peptide)	45
SVAYVPV (Human MPZ-binding peptide)	46
SYLPPFI (Human MPZ-binding peptide)	41
THSTDLS (Human MPZ-binding peptide)	37
TLLHYSA (Human MPZ-binding peptide)	40
TTLVVTA (Human MPZ-binding peptide)	42
TTNVTEIERESY (Human MPZ-binding peptide)	37
TTWPNTA (Human MPZ-binding peptide)	45
VHTPYRS (Human MPZ-binding peptide)	41
VPLAYLR (Human MPZ-binding peptide)	40
VVPLKWI (Human MPZ-binding peptide)	40
WMTNLDP (Human MPZ-binding peptide)	43
WPRPIQI (Human MPZ-binding peptide)	41
WTSVATA (Human MPZ-binding peptide)	41
YAPWRVF (Human MPZ-binding peptide)	37
YEGERGA (Human MPZ-binding peptide)	39
YGQSITE (Human MPZ-binding peptide)	37
YMKHSPG (Human MPZ-binding peptide)	45
YPQARTS (Human MPZ-binding peptide)	46
YSSLTSN (Human MPZ-binding peptide)	38
YTPNWHFRWMPA (Human MPZ-binding peptide)	60
